According to PubChem BioAssay AID1259407 (Chemical Carcinogenesis Research Information System (CCRIS), 2018):
The source made the active and inactive calls. No rule for the calls is given here.

System: CCRIS mutagenicity, Ames/micronucleus/aberration tests
Assay: CCRIS mutagenicity studies
[1] = Test System: AMES SALMONELLA TYPHIMURIUM, Strain/Indicator: TA98, Metabolic Activation: NONE, Method: PREINCUBATION
[2] = Test System: AMES SALMONELLA TYPHIMURIUM, Strain/Indicator: TA98, Metabolic Activation: RAT, LIVER, S-9, AROCLOR 1254, Method: PREINCUBATION
[3] = Test System: AMES SALMONELLA TYPHIMURIUM, Strain/Indicator: TA100, Metabolic Activation: NONE, Method: PREINCUBATION
[4] = Test System: AMES SALMONELLA TYPHIMURIUM, Strain/Indicator: TA98, Metabolic Activation: NONE, Method: STANDARD PLATE
[5] = Test System: AMES SALMONELLA TYPHIMURIUM, Strain/Indicator: TA98, Metabolic Activation: RAT, LIVER, S-9, AROCLOR 1254, Method: STANDARD PLATE
[6] = Test System: AMES SALMONELLA TYPHIMURIUM, Strain/Indicator: TA98, Metabolic Activation: S-9, Method: STANDARD PLATE
[7] = Test System: AMES SALMONELLA TYPHIMURIUM, Strain/Indicator: TA100, Metabolic Activation: NONE, Method: STANDARD PLATE
[8] = Test System: AMES SALMONELLA TYPHIMURIUM, Strain/Indicator: TA100, Metabolic Activation: RAT, LIVER, S-9, AROCLOR 1254, Method: STANDARD PLATE
[9] = Test System: AMES SALMONELLA TYPHIMURIUM, Strain/Indicator: TA100, Metabolic Activation: S-9, Method: STANDARD PLATE

OCc1c[nH]c2ccccc12
mutagenic call (Test System: Ames Salmonella typhimurium, Strain/Indicator: TA98, Metabolic Activation: None, Method: Plate incorporation): inactive; negative | mutagenic call (Test System: Ames Salmonella typhimurium, Strain/Indicator: TA98, Metabolic Activation: None, Method: Preincubation): inactive; negative | mutagenic call (Test System: Ames Salmonella typhimurium, Strain/Indicator: TA98, Metabolic Activation: Rat, Liver, S-9, Aroclor 1254, Method: Plate incorporation): inactive; negative | mutagenic call (Test System: Ames Salmonella typhimurium, Strain/Indicator: TA98, Metabolic Activation: Rat, Liver, S-9, Aroclor 1254, Method: Preincubation): inactive; negative | mutagenic call (Test System: MOUSE LYMPHOMA, Strain/Indicator: L5178Y (TK+/TK-), Metabolic Activation: NONE, Method: SUSPENSION/PLATE): active; positive. reevaluation of results: positive | mutagenic call (Test System: MOUSE LYMPHOMA, Strain/Indicator: L5178Y (TK+/TK-), Metabolic Activation: RAT, LIVER, S-9, AROCLOR 1254, Method: SUSPENSION/PLATE): active; positive. reevaluation of results: positive

Cc1c2ccccc2c(COS(=O)(=O)O)c2ccccc12
mutagenic call [1]: active; positive

O=[N+]([O-])c1ccc(Nc2ccc(Nc3ccccc3)c(S(=O)(=O)O)c2)c([N+](=O)[O-])c1
mutagenic call (Test System: AMES SALMONELLA TYPHIMURIUM, Strain/Indicator: TA97, Metabolic Activation: HAMSTER, LIVER, S-9, AROCLOR 1254, Method: PREINCUBATION): active; positive | mutagenic call (Test System: AMES SALMONELLA TYPHIMURIUM, Strain/Indicator: TA97, Metabolic Activation: NONE, Method: PREINCUBATION): active; positive | mutagenic call (Test System: AMES SALMONELLA TYPHIMURIUM, Strain/Indicator: TA97, Metabolic Activation: RAT, LIVER, S-9, AROCLOR 1254, Method: PREINCUBATION): active; positive | mutagenic call (Test System: AMES SALMONELLA TYPHIMURIUM, Strain/Indicator: TA98, Metabolic Activation: HAMSTER, LIVER, S-9, AROCLOR 1254, Method: PREINCUBATION): active; positive | mutagenic call [1]: active; positive | mutagenic call [2]: active; positive | mutagenic call (Test System: AMES SALMONELLA TYPHIMURIUM, Strain/Indicator: TA100, Metabolic Activation: HAMSTER, LIVER, S-9, AROCLOR 1254, Method: PREINCUBATION): active; positive | mutagenic call [3]: active; positive | mutagenic call (Test System: AMES SALMONELLA TYPHIMURIUM, Strain/Indicator: TA100, Metabolic Activation: RAT, LIVER, S-9, AROCLOR 1254, Method: PREINCUBATION): active; positive | mutagenic call (Test System: AMES SALMONELLA TYPHIMURIUM, Strain/Indicator: TA1535, Metabolic Activation: HAMSTER, LIVER, S-9, AROCLOR 1254, Method: PREINCUBATION): inactive; negative | mutagenic call (Test System: AMES SALMONELLA TYPHIMURIUM, Strain/Indicator: TA1535, Metabolic Activation: NONE, Method: PREINCUBATION): inactive; negative | mutagenic call (Test System: AMES SALMONELLA TYPHIMURIUM, Strain/Indicator: TA1535, Metabolic Activation: RAT, LIVER, S-9, AROCLOR 1254, Method: PREINCUBATION): inactive; negative

[N-]=[N+]=Nc1ccc2c(Nc3ccc(NS(=O)(=O)CCCN)cc3)c3ccc(N=[N+]=[N-])cc3nc2c1
mutagenic call (Test System: AMES SALMONELLA TYPHIMURIUM, Strain/Indicator: TA1537, Metabolic Activation: NONE, Method: STANDARD PLATE): active; positive

Nc1nnc(/C(=C/c2ccc([N+](=O)[O-])o2)c2ccco2)o1
mutagenic call (Test System: UDS HUMAN FIBROBLASTS, Strain/Indicator: THY INCORP (NON-S-PHASE), Metabolic Activation: NONE, Method: AUTORADIOGRAPHY): active; positive

CCn1c(N)nc2c3nc(C)cnc3ccc21
mutagenic call [2]: active; positive

Nc1ccc(/C=C/c2ccc(N)cc2)cc1
mutagenic call (Test System: AMES SALMONELLA TYPHIMURIUM, Strain/Indicator: TA98(1,8-DNP6), Metabolic Activation: NONE, Method: STANDARD PLATE): inactive; negative | mutagenic call (Test System: AMES SALMONELLA TYPHIMURIUM, Strain/Indicator: TA98(1,8-DNP6), Metabolic Activation: S-9, Method: STANDARD PLATE): inactive; negative | mutagenic call [4]: inactive; negative | mutagenic call [5]: active; positive | mutagenic call [6]: active; positive | mutagenic call [7]: inactive; negative | mutagenic call [8]: inactive; negative | mutagenic call [9]: inactive; negative

CS(=O)(=O)OCCCNCCCOS(C)(=O)=O
mutagenic call [6]: inactive; negative | mutagenic call [9]: inactive; negative | mutagenic call (Test System: AMES SALMONELLA TYPHIMURIUM, Strain/Indicator: TA102, Metabolic Activation: S-9, Method: STANDARD PLATE): inactive; negative | mutagenic call (Test System: AMES SALMONELLA TYPHIMURIUM, Strain/Indicator: TA1537, Metabolic Activation: S-9, Method: STANDARD PLATE): active; positive | mutagenic call (Test System: E. COLI, Strain/Indicator: WP2 (HCR), Metabolic Activation: S-9, Method: STANDARD PLATE): active; positive

Cc1cnc2c(n1)c(C)cc1c2nc(N)n1C
mutagenic call [5]: active; positive

CC1=CC(=O)c2nc(C)c3c([nH]c4ccccc43)c2C1=O
mutagenic call (Test System: AMES SALMONELLA TYPHIMURIUM, Strain/Indicator: TA97, Metabolic Activation: NONE, Method: STANDARD PLATE): active; positive | mutagenic call (Test System: AMES SALMONELLA TYPHIMURIUM, Strain/Indicator: TA97, Metabolic Activation: RAT, LIVER, S-9, AROCLOR 1254, Method: STANDARD PLATE): active; positive | mutagenic call [4]: active; positive | mutagenic call [5]: active; positive | mutagenic call [7]: active; positive | mutagenic call [8]: inactive; negative | mutagenic call (Test System: AMES SALMONELLA TYPHIMURIUM, Strain/Indicator: TA102, Metabolic Activation: NONE, Method: STANDARD PLATE): inactive; negative | mutagenic call (Test System: AMES SALMONELLA TYPHIMURIUM, Strain/Indicator: TA102, Metabolic Activation: RAT, LIVER, S-9, AROCLOR 1254, Method: STANDARD PLATE): inactive; negative

O=C1c2ccccc2-c2ccc3ccccc3c21
mutagenic call [4]: inactive; negative | mutagenic call [5]: inactive; negative | mutagenic call [7]: inactive; negative | mutagenic call [8]: inactive; negative

Clc1ccc(C(c2ccccc2Cl)C(Cl)Cl)cc1 (stereo not drawn)
mutagenic call (End Point: IN VITRO CHROMOSOMAL ABERRATIONS, Test System: CHINESE HAMSTER OVARY CELLS, Metabolic Activation: NONE): inactive; negative | mutagenic call (End Point: IN VITRO CHROMOSOMAL ABERRATIONS, Test System: CHINESE HAMSTER OVARY CELLS, Metabolic Activation: RAT, LIVER, S-9, AROCLOR 1254): inactive; negative | mutagenic call (Test System: AMES SALMONELLA TYPHIMURIUM, Strain/Indicator: TA98, Metabolic Activation: MOUSE, LIVER, S-9, Method: STANDARD PLATE): inactive; negative | mutagenic call [4]: inactive; negative | mutagenic call (Test System: AMES SALMONELLA TYPHIMURIUM, Strain/Indicator: TA98, Metabolic Activation: RAT, LIVER, S-9, Method: STANDARD PLATE): inactive; negative | mutagenic call (Test System: AMES SALMONELLA TYPHIMURIUM, Strain/Indicator: TA100, Metabolic Activation: MOUSE, LUNG, S-9, Method: STANDARD PLATE): inactive; negative | mutagenic call [7]: inactive; negative | mutagenic call (Test System: AMES SALMONELLA TYPHIMURIUM, Strain/Indicator: TA100, Metabolic Activation: RAT, LIVER, S-9, Method: STANDARD PLATE): inactive; negative | mutagenic call (Test System: UDS RODENT HEPATOCYTES, Strain/Indicator: THY INCORP (NON-S-PHASE), Metabolic Activation: NONE, Method: LIQUID SCINTILLATION COUNTING): inactive; negative | mutagenic call (Test System: UDS RODENT LUNG CELLS, Strain/Indicator: THY INCORP (NON-S-PHASE), Metabolic Activation: NONE, Method: LIQUID SCINTILLATION COUNTING): active; positive

c1ccc2c(c1)ccc1cc3ccc4ccccc4c3nc12
mutagenic call (Test System: AMES SALMONELLA TYPHIMURIUM, Strain/Indicator: TA100, Metabolic Activation: RAT, LIVER, S-9, PHENOBARBITAL AND 5,6-BENZOFLAVONE, Method: STANDARD PLATE): active; positive

[Be]=[O]
mutagenic call [1]: inactive; negative | mutagenic call (Test System: AMES SALMONELLA TYPHIMURIUM, Strain/Indicator: TA98, Metabolic Activation: RAT, LIVER, S-9 (10%), Method: PREINCUBATION): inactive; negative | mutagenic call [3]: inactive; negative | mutagenic call (Test System: AMES SALMONELLA TYPHIMURIUM, Strain/Indicator: TA100, Metabolic Activation: RAT, LIVER, S-9 (10%), Method: PREINCUBATION): inactive; negative
